Reference: patent US5985281A, “Chemical compounds” (Zeneca Limited, priority 1994, dated 1999)
Like-named read-outs stand apart in the source and are kept apart here. Residues, ends and D or L forms follow the SMILES beside them.

Columns and labels:
[1] = system: Lys66Glu BP-RNase; assay type: biochemical, bovine; details: for kcat/Km: pH 7.5
[2] = system: Arg4Ala,Lys6Ala,Lys66Glu HP-RNase; assay type: biochemical, human; details: for kcat/Km: pH 7
[3] = system: Lys66Glu BP-RNase; test: Enzyme kinetics of prodrug analogues with mutant Lys66Glu bovine RNase; details: 25° C.
[4] = system: HP-RNase; assay type: biochemical, human; details: pH 7
[5] = system: LoVo colorectal tumour cells
[6] = system: LoVo tumour; test: Anti-tumour activity in LoVo xenografted mice; assay type: in vivo, athymic nude mice; details: conjugate 10-100 mg/kg iv, then prodrug 100-1000 mg/kg iv or ip; vs untreated, conjugate or prodrug alone
Experimental: LoVo tumour cells (10^7) are injected subcutaneously into athymic nude mice. When the tumours are 4-5 mm in diameter the conjugate is administered iv at doses between 10-100 mg/kg. Following localisation of the conjugate to the tumours and allowing a suitable time interval for residual conjugate to clear from the bloodstream and normal tissues (1-4 days) the prodrug is administered either iv or ip to the mice in dose ranging between 100-1000 mg/kg.

[7] = molecular target: T1, BP-RNase (Bos taurus, UniProt P61823); test: Enzyme kinetics of RNase prodrug versus native bovine pancreatic RNase; assay type: biochemical; details: 37° C., pH 7.5
T1 sequence (P61823 27-150): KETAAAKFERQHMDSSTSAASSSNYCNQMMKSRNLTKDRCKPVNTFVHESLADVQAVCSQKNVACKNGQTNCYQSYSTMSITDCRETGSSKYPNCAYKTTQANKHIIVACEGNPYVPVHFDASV

[8] = system: D253K mutant HCPB; test: Determination of Km and kcat of D253K mutant HCPB with Hipp-Asp and Hipp-Glu; assay type: biochemical, human; details: for Km / kcat / kcat/Km: pH 7.5, 37° C.
[9] = Conversion of Hipp-Arg to hippuric acid by mutant and native human CPB (HPLC); assay type: biochemical; details: 4 μg enzyme, 5 h, 37° C., pH 7.5
[10] = Enzymic activity of recombinant HCPB against Hipp-Arg (spectrophotometric); assay type: biochemical; details: Tris HCl pH 7.5
Experimental: Purified human CPB, produced as described in Reference Example 20, was assayed for its ability to convert hippuryl-L-arginine (Hipp-Arg) to hippuric acid using a spectrophotometric assay.
Km and Vmax values were calculated using the ENZFITTER™ software programme (Biosoft™, Perkin Elmer). Kcat was calculated form Vmax by dividing by the enzyme concentration in the reaction mixture.

[11] = Conversion of Hipp-Asp to hippuric acid by mutant and native human CPB (HPLC); assay type: biochemical; details: 0.5 mM Hipp-Asp, 4 μg enzyme, 5 h, 37° C., pH 7.5
[12] = HCPB activity of COS cell supernatants against Hipp-Arg; assay type: biochemical; details: COS-7 supernatant (250 μl), 5 h assay
[13] = Conversion of Hipp-Glu to hippuric acid by mutant and native human CPB (HPLC); assay type: biochemical; details: 0.5 mM Hipp-Glu, 4 μg enzyme, 5 h, 37° C., pH 7.5
[14] = molecular target: C > p; test: Kinetic characterisation of RNase enzymes with C>p as substrate at pH 7.0; assay type: biochemical; details: CpA and C>p as substrates
Experimental: The kinetic characterisation was carried out using CpA and C>p as substrates (FIG. 16). The kinetic parameters Km, kcat, and kcat/Km were compared with the values obtained for commercial and recombinant bovine pancreatic RNase under the same assay conditions (see Tables).
Kinetic parameters of the different enzymes for C > p as […]

[15] = system: C>p; test: RNase activity of recombinant and Lys66Glu bovine RNase on hydrolysis of C>p (and CpA); assay type: biochemical

## Nc1ccn([C@@H]2O[C@H](CO)[C@H]3OP(=O)(O)O[C@H]32)c(=O)n1 [C > p, cytidine-2',3'-cyclic monophosphate, reference compound]
[1]
  kcat/Km: 3.0
[2]
  kcat/Km: 1.2
[3]
  kcat/Km: 3.0 mM⁻¹ s⁻¹
[4]
  kcat/Km: 1.2

## NCC(=O)NC[C@H]1O[C@@H](n2ccc(=O)[nH]c2=O)[C@H](O)[C@@H]1OP(=O)(O)Oc1ccc(N(CCCl)CCCl)cc1 [Example 3, O-[(2R,3S,4R,5R)-2-(2-aminoacetamidomethyl)-5-(2,4-dioxo-1,2,3,4-tetrahydropyrimidin-1-yl)-4-hydroxy-2,3,4,5-tetrahydrofuran-3-yl]O-[4-(bis[2-chloroethyl]amino)phenyl] hydrogen phosphate]
[5]
  cytotoxicity of prodrug with A5B7 F(ab')2-Arg4Ala,Lys6Ala,Lys66Glu HP-RNase conjugate: comparable to that of the active drug
  cytotoxicity of prodrug with free Arg4Ala,Lys6Ala,Lys66Glu HP-RNase: comparable to that of the active drug
[5]; human
  fold less cytotoxic than the drug: approximately 30 fold
[5]; read-out: IC50 (inhibition of cell growth by 50%)
  IC50: ~30 µM
[1]
  rate of hydrolysis compared with native enzyme: much faster than the native enzyme
  kcat/Km: 18
[2]
  rate of hydrolysis compared with native enzyme: much faster than the native enzyme
  kcat/Km: 3.6
[6]
  tumour growth with combination of conjugate and prodrug: significantly slower
[7]
  kcat/Km: 370 M⁻¹ s⁻¹
[4]
  kcat/Km: 0.2

## O=C(O)C[C@H](NC(=O)CNC(=O)c1ccccc1)C(=O)O [Hipp-Asp, hippuryl-L-aspartic acid] (HELM PEPTIDE1{[O=C(c1ccccc1)[*:2]].G.D}$$$$V2.0)
[8]
  Km: 2.7 mM
  kcat: 0.26 s⁻¹
  kcat/Km: 100 M⁻¹ s⁻¹

## O=C(O)CC[C@H](NC(=O)CNC(=O)c1ccccc1)C(=O)O [Hipp-Glu, hippuryl-L-glutamic acid] (HELM PEPTIDE1{[O=C(c1ccccc1)[*:2]].G.E}$$$$V2.0)
[8]; Hipp-Glu vs Hipp-Asp
  kcat/Km compared to the Hipp-Asp substrate: approximately 7 fold
[8]
  Km: 5.3 mM
  kcat: 3.8 s⁻¹
  kcat/Km: 700 M⁻¹ s⁻¹

## CCCN(CCC)c1ccc(OP(=O)(O)O[C@H]2[C@@H](O)[C@H](n3ccc(=O)[nH]c3=O)O[C@@H]2CNC(=O)CN)cc1 [Reference Example 6]
[3]
  kcat/Km: 25(6) mM^-1 s^-1

## CCCN(CCC)c1ccc(OP(=O)(O)O[C@H]2[C@@H](O)[C@H](n3ccc(N)nc3=O)O[C@@H]2CNC(=O)CN)cc1 [Reference Example 7]
[3]
  kcat/Km: 109(11) mM^-1 s^-1

B1: Native CPB: native human pancreatic carboxypeptidase B, recombinant (protein, UniProt P15086 111-417, looked up)
Carboxypeptidase B: ATGHSYEKYNKWETIEAWTQQVATENPALISRSVIGTTFEGRAIYLLKVGKAGQNKPAIFMDCGFHAREWISPAFCQWFVREAVRTYGREIQVTELLDKLDFYVLPVLNIDGYIYTWTKSRFWRKTRSTHTGSSCIGTDPNRNFDAGWCEIGASRNPCDETYCGPAAESEKETKALADFIRNKLSSIKAYLTIHSYSQMMIYPYSYAYKLGENNAELNALAKATVKELASLHGTKYTYGPGATTIYPAAGGSDDWAYDQGIRYSFTFELRDTGRYGFLLPESQIRATCEETFLAIKYVASYVLEHLY
[9]
  % conversion to Hippuric acid, Hipp-Arg: 100%
[10]
  kcat: 65 s⁻¹
[11]
  % conversion to Hippuric acid, Hipp-Asp: 0%
[12]; LIPOFECTIN-only control 1.2%
  hydrolysis of Hipp-Arg substrate: 61%
[13]
  % conversion to Hippuric acid, Hipp-Glu: 0%

B2: Rec. HP-RNase R4A:K6A: recombinant Arg4Ala,Lys6Ala human pancreatic ribonuclease (protein, UniProt P07998 29-156, looked up, variant R4A K6A)
Ribonuclease pancreatic: KESAAAKFQRQHMDSDSSPSSSSTYCNQMMRRRNMTQGRCKPVNTFVHEPLVDVQNVCFQEKVTCKNGQGNCYKSNSSMHITDCRLTNGSRYPNCAYRTSPKERHIIVACEGSPYVPVHFDASVEDST
[14]
  kinetic properties compared with homologous bovine counterpart: not significantly different

B3: Rec. BP-RNase: recombinant bovine pancreatic ribonuclease (protein, UniProt P61823 27-150, looked up)
Ribonuclease pancreatic: KETAAAKFERQHMDSSTSAASSSNYCNQMMKSRNLTKDRCKPVNTFVHESLADVQAVCSQKNVACKNGQTNCYQSYSTMSITDCRETGSSKYPNCAYKTTQANKHIIVACEGNPYVPVHFDASV
[15]; hydrolysis of CpA and C>p
  specific activity compared with the commercial enzyme: equal specific activity to that of the commercial enzyme

B4: Lys66Glu BP-RNase: bovine Lys66Glu pancreatic ribonuclease (protein, UniProt P61823 27-150, looked up, variant K66E)
Ribonuclease pancreatic: KETAAAKFERQHMDSSTSAASSSNYCNQMMKSRNLTKDRCKPVNTFVHESLADVQAVCSQKNVACENGQTNCYQSYSTMSITDCRETGSSKYPNCAYKTTQANKHIIVACEGNPYVPVHFDASV
[15]; C>p hydrolysis, pH 7.0
  kinetic properties compared with commercial bovine enzyme: not significantly different to the commercial bovine enzyme

B5: proHCPB: pro form of human pancreatic carboxypeptidase B expressed from COS cells (protein, UniProt P15086 16-417, looked up)
pro-form: HHGGEHFEGEKVFRVNVEDENHINIIRELASTTQIDFWKPDSVTQIKPHSTVDFRVKAEDTVTVENVLKQNELQYKVLISNLRNVVEAQFDSRVRATGHSYEKYNKWETIEAWTQQVATENPALISRSVIGTTFEGRAIYLLKVGKAGQNKPAIFMDCGFHAREWISPAFCQWFVREAVRTYGREIQVTELLDKLDFYVLPVLNIDGYIYTWTKSRFWRKTRSTHTGSSCIGTDPNRNFDAGWCEIGASRNPCDETYCGPAAESEKETKALADFIRNKLSSIKAYLTIHSYSQMMIYPYSYAYKLGENNAELNALAKATVKELASLHGTKYTYGPGATTIYPAAGGSDDWAYDQGIRYSFTFELRDTGRYGFLLPESQIRATCEETFLAIKYVASYVLEHLY
modifications: pro-form
notes: pro form of human pancreatic carboxypeptidase B expressed from COS cells
[12]; trypsin 700 μg/ml, LIPOFECTIN-only control 30%
  hydrolysis of Hipp-Arg substrate after activation with trypsin: complete hydrolysis
